The numbers were not newly measured in patent US20210007979A1 (FULTON MEDICINAL S.P.A., priority 2018, published 2021), which cites them from elsewhere.

Where a name gives a salt, the structure may show the parent alone.

Assay in data set [1]: not given
The source holds these as a separate data set.

On to `CCCc1nn(C)c2c(=O)[nH]c(-c3cc(S(=O)(=O)N4CCN(C)CC4)ccc3OCC)nc12` [sildenafil citrate, Sildenafil citrate], for which the “Permeability of the oral mucosae” value is recorded as “low permeability”. The Solubility in water result in data set [1] is recorded as “sparingly soluble”.
